Two compounds from PMC12192727, “Strategies to Develop Na,K-ATPase-α4 Inhibitors as Male Contraceptives” (International Journal of Molecular Sciences, 2025) can be followed below.

The IC50 is the concentration that gives 50% inhibition. A high value points to weaker potency. Usually Solubility stands for the dissolved amount per volume that the medium holds.

SMILES strings stand for the structures. Converted amounts (≈) assume the structure as drawn. “Also recorded” adds a separate entry of the source. Read-outs that look alike come from different tables or passages of the source.

One data set has as its system mouse sperm. The experiment in a line: Mouse sperm total motility in vitro (CASA). In kind it is cell-based. The settings on record: for Emax: Mus musculus, Sperm, 1 h, nanomolar range concentration, read-out: Maximal Motility Inhibition (%). Here is the method:
To characterize the SAR of these compounds, we first evaluated their effects on total sperm motility in vitro. Sperm isolated from the cauda epididymis of mice were incubated with the test compounds in modified Whitten’s medium under non-capacitating conditions. Motility was assessed using a computer-assisted sperm analysis (CASA) system.
All experimental protocols involving animals used in this work were approved by the University of Kansas Medical Center Institutional Animal Care and Use Committee (ACUP number: 22-09-26, 10/2022). C57BL/6 mice were purchased from Harlan (Indianapolis, IN, USA). Spermatozoa were isolated from the cauda of adult mouse epididymis in Whitten’s medium, containing 100 mM NaCl, 4.7 mM KCl, 1.2 mM KH2PO4, 1.2 mM MgSO4, 5.5 mM glucose, 0.8 mM pyruvic acid, 4.8 mM lactic acid, and 40 mM Hepes, as previously described.
Spermatozoa (1 × 10^6 cells) were incubated at 37 °C in 100 μL of Whitten’s medium, with the addition of 1.7 mM CaCl2 and in the absence and presence of different amounts of the tested compounds for 60 min. Then, cells were labeled with the fluorescent nucleic acid stain SYTO 21, which allows for the tracking of the movement of the cell head. After 1 min of incubation with the dye, 5.5 μL aliquots from each sample were taken and placed into a glass cell chamber (Leja Products B.V., Nieuw-Vennep, The Netherlands). Sperm were maintained at 37 °C on a heated platform and viewed with an Olympus BX51 microscope (Olympus, Center Valley, PA, USA) through a 20× phase objective. Images of the moving sperm were captured using a CCD camera. Samples were analyzed by CASA using the Minitube SpermVision Digital Semen Evaluation system (version 3.5; Penetrating Innovations, Verona, WI, USA). An average of 200 cells/field were captured, at a rate of 30 frames per field, and a total of 10 fields in each sample were analyzed. Total sperm motility was obtained from sperm maintained in a non-capacitating medium, while for assessing the hyperactive pattern of motility, typical of sperm capacitation, cells were incubated in Whitten’s medium with the addition of 1.7 mM CaCl2, 25 mM sodium bicarbonate, and 0.5% bovine serum albumin.
Figure 2 Effect of simplified steroidal analogs on mouse sperm total motility. Sperm was isolated from the cauda epididymis and treated in the absence and presence of the indicated concentrations of each compound. After one hour of incubation, sperm motility was determined by CASA. Values are expressed as the mean ± SEM of three determinations.
Figure 4 Effect of non-steroidal small compounds on mouse sperm total motility. Sperm was isolated from the cauda epididymis and treated in the absence and presence of the indicated concentrations of each compound. After 1 h of incubation, sperm motility was determined by CASA. Values are expressed as the mean ± SEM of three determinations.

Another data set deals with mouse epididymal sperm. The data set can be described thus: Reversibility of effect on sperm motility after washing. In kind it is cell-based. The settings on record: after washing the cells with fresh medium. The protocol: An important goal for the development of agents to be used for contraception is to assess the reversibility of their effect on sperm. To achieve this, we treated mouse sperm in the absence and presence of either 13 or 45 and measured epididymal sperm motility before and after washing the cells with fresh medium.
Mouse epididymal sperm were treated in the absence or presence of compounds 13 or 45 for one hour in Whitten’s medium. After an initial measurement of sperm motility using CASA, the sperm was washed by centrifugating the sample at 300× g for 3 min and resuspension in fresh Whitten’s medium. Then, sperm motility was determined again using CASA for the different times and for up to 180 min.
Figure 7 Reversibility of the effect of compounds 13 and 45. Mouse epididymal sperm were treated in the absence (untreated control) or presence of 13 (A) or 45 (B) for one hour. Then, the sperm was washed, and motility was measured before and after washing the cells using CASA. Sperm movement was followed during the indicated times. Values are expressed as the mean ± SEM of three determinations. Samples treated with 13 and 45 were statistically different from the untreated controls, with p < 0.05.

The nature of the next data set: physchem. It is filed as physicochemical. Conditions: PBS pH 7.4. Here is the method: The stock solutions of 11 and 45 were prepared in DMSO at a concentration of 30 mM, and the stock solution of the control compound was prepared in DMSO at a concentration of 30 mM. Progesterone was used as a positive control in the assay. An amount of 10 µL of stock solution of each compound was placed in order into their proper 96-well rack, followed by adding 990 µL of PBS at pH 7.4 into each vial of the capless Solubility Sample plate. This study was performed in duplicate. One stir stick was added to each vial and then sealed using a molded PTDE/SIL 96-Well Plate Cover (Pharmaron, Waltman, MA, USA). The Solubility Sample plate was transferred to the Thermomixer Comfort plate shaker and incubated at RT for 2 h with shaking at 1100 rpm. After 2 h of incubation, stir sticks were removed using a big magnet, and all samples from the Solubility Sample plate were transferred into the filter plate. All the samples were filtered using a vacuum manifold. The filtered samples were diluted with methanol. The soluble fraction (filtrate) was then analyzed by LC-MS/MS, and the compound concentration was determined using 0.3 μM standard solutions prepared from DMSO stocks. The experimental details are reported in the Supporting Information (Table S1). […]
Table S1 . Solubility Results of Test C ompound and Control C ompound in […]
Compound ID Solubility (µM)
Preparation of Stock Solutions: The stock solutions of test compounds were prepared in DMSO at the concentration of 30 mM, and the stock solution of control compound was prepared in DMSO at the concentration of 30 mM.
Progesterone was used as positive control in the assay.
Solubility Determination: 10 µL stock solution of each compound was placed in order into their proper 96-well rack, followed by adding 990 µL of PBS at pH 7.4 into each vial of the cap-less Solubility Sample plate. This study was performed in duplicate. One stir stick was added to each vial and then vials were sealed using a molded PTDE/SIL 96-Well Plate Cover. The Solubility Sample plate was transferred to the Thermomixer Comfort plate shaker and incubated at RT for 2 hours with shaking at 1100 rpm. After 2 hours incubation, stir sticks were removed using a big magnet and all samples from the Solubility Sample plate were transferred into the filter plate. All the samples were filtered by using the Vacuum Manifold. The filtered samples were diluted with methanol. The dilution factor might be changed according to the solubility value and the LC/MS signal response. To prepare 0.3 µM Standards (STD), 30 mM DMSO compound stock solutions were diluted with DMSO to 300 µM and then diluted with methanol to obtain 0.3 µM STDs. Samples were analyzed by LC-MS/MS. All calculations were carried out using Microsoft Excel. The solution filtered was analyzed and quantified against a standard of known concentration in DMSO using LC coupled with Mass spectral peak identification and quantitation. The solubility values of the test compounds were calculated as follow DF means the dilution factor
1. Chromatographic conditions
Apparatus: Triple QuadTM 5500 instrument from AB Inc (Canada) with an ESI interface Column: XSelect Hss T3 2.5µ (2.1×50 mm) Column XP coupled with preguard column Mobile phase: 0.1% formic acid in acetonitrile (A) and 0.1% formic acid in water (B) […]

[1] abbreviates: aqueous buffer, kinetic from dmso stock, read-out: Solubility.
The mark [2] stands for this setting: simplified steroid analogs, mouse sperm motility.

Take `CC12CCC(=O)C=C1CCCC2n1cc(-c2ccccc2)nn1` (stereo not drawn) [Compound 45, 4a-Methyl-5-(4-phenyl-1H-1,2,3-triazol-1-yl)-4,4a,5,6,7,8-hexahydronaphthalen-2(3H)-one]: the Emax in the data set with mouse sperm (non-steroidal small molecules, mouse sperm total motility) was roughly 50%. This compound also came in with an IC50 with mouse sperm (non-steroidal small molecules, mouse sperm motility) of 0.048 nM. Also, the “Reversibility of effect on sperm motility” value with mouse epididymal sperm is on record as “maintained over time; also recorded: not reversible”. Besides, the Solubility result in “physchem” is “good”; in the data set “physchem” (setting [1]), 256 µM (≈ 78.7 µg/mL).

Turning to `C[C@]12CC[C@H]3[C@@H](CC=C4C[C@@H](O)CC[C@@]43C)[C@@H]1CC[C@@H]2c1cn(Cc2ccccc2)nn1` [Compound 13, (3S,8S,9S,10R,13S,14S,17S)-17-(1-Benzyl-1H-1,2,3-triazol-4-yl)-10,13-dimethyl-2,3,4,7,8,9,10,11,12,13,14,15,16,17-tetradecahydro-1H-cyclopenta[a]phenanthren-3-ol], in the data set on mouse sperm (simplified steroid analogs, mouse sperm total motility), the Emax worked out at 41%. In addition, the “Shape of inhibitory dose response on sperm motility” value in the data set on mouse sperm (mouse sperm total motility) was “monotonic inhibitory response”. In the data set on mouse sperm (setting [2]), the IC50 amounted to 0.024 nM and the “IC50 (pM)” value is on record as “sub-nanomolar range”. In addition, in the data set with mouse epididymal sperm, the “Reversibility of effect on sperm motility” value is listed as “maintained over time; also recorded: not reversible”. The Solubility entry in “physchem” is recorded as “poor”. Besides, the Solubility in “physchem” (setting [1]) is 0.3 µM (≈ 0.129 µg/mL).
